The first data set deals with NQO1 activity in Hepa1c1c7 cells. In words: NAD(P)H: quinone oxidoreductase-1 (NQO1) enzyme induction assay (in vitro). Format: cell-based, mouse. The note with it: 400 nM of test compound, about 48 hr, ratio from the base without the compound. As to the method: The NQO1 assay was performed based on a previous report (Methods in Enzymology 2004; 382: 243-258). Hepa1c1c7 cells (mouse hepatocyte cell line, ATCC, cat. no. CRL-2026) were cultured in D-MEM medium containing 10% FBS and 1% penicillin/streptomycin (5% CO2, 37° C.), and seeded into 96-well plates (Corning REF. 353072) at 1×10^4 cells/well. A portion of the wells were prepared with medium only for background measurement without seeding cells. The next day, 400 nM of the test compound (0.004% of the final concentration in DMSO) dissolved in DMSO was added thereto, and the wells were incubated for about 48 hr. A well without adding the test compound was prepared for base activity assay in part.
Cell lysate (solution containing 0.8% digitonin, 2 mM EDTA), reaction solution (solution containing 25 mM Tris-HCl, 0.07% albumin, 0.01% Tween-20, 2 U/mL glucose-6-phosphate dehydrogenase, 5 μM flavin adenine dinucleotide, 1 μM glucose-6-phosphate, […] nicotinamide adenine dinucleotide phosphate, 0.03% 3-(4,5-dimethyl-2-thiazolyl)-2,5-diphenyltetrazolium bromide (MTT), and 50 μM menadione), stop solution (solution containing 0.3 mM dicoumarol and 5 mM potassium dihydrogen phosphate, pH 7.4) were prepared. After the medium was removed, 50 μL of the cell lysate was added and incubated at 37° C. for 10 minutes, followed by shaking at room temperature for 10 minutes. 200 μL of reaction solution was added thereto, and allowed to stand for 5 minutes at room temperature. 50 μL of the stop solution was added thereto, and absorbance was measured at 610 nm on a SpectraMax PLUS384 (Molecular devices) or POWERSCAN HT (DS Pharma Biomedical). The test results were analyzed in Excel, and the NQO1 activity upon addition of 400 nM of test compound was calculated as a ratio from the base without the compound.
The results of each test compound in this test are shown in the following Table 2 (A:5<NQO1 activity ratio, B:3<NQO1 activity ratio≤5).
Regarding `CC[C@@H]1CN(Cc2cc([C@H](CC(=O)O)c3ccc4c(nnn4C)c3C)cc3ccsc23)[C@@H](C)c2ncccc2O1` [Example 62, (3S)-3-(1,4-Dimethyl-1H-benzotriazol-5-yl)-3-(7-{[(2R,5S)-2-ethyl-5-methyl-2,3-dihydropyrido[2,3-f][1,4]oxazepin-4(5H)-yl]methyl}-1-benzothiophen-5-yl)propanoic acid], the “activity ratio (NQO1 activity ratio)” value was “A (5<NQO1 activity ratio)”.

Turning to `CC[C@@H]1CN(Cc2cc([C@@H](CC(=O)O)c3ccc4c(nnn4C)c3C)cc3ccsc23)C(C)c2nc(O)ccc2O1` (single isomer, unassigned) [Example 78, (3R)-3-(1,4-Dimethyl-1H-benzotriazol-5-yl)-3-(7-{[(2R,5S*)-2-ethyl-7-hydroxy-5-methyl-2,3-dihydropyrido[2,3-f][1,4]oxazepin-4(5H)-yl]methyl}-1-benzothiophen-5-yl)propanoic acid], the “activity ratio (NQO1 activity ratio)” value was “A (5<NQO1 activity ratio)”. The same measure, in the same setting: under `Cc1c([C@H](CC(=O)O)c2cc(CN3C[C@@H](C4CC4)Oc4ccc(O)nc4C3C)c3sccc3c2)cnc2c1nnn2C` (single isomer, unassigned) [Example 85, (3R)-3-(7-{[(2R,5R*)-2-Cyclopropyl-7-hydroxy-5-methyl-2,3-dihydropyrido[2,3-f][1,4]oxazepin-4(5H)-yl]methyl}-1-benzothiophen-5-yl)-3-(3,7-dimethyl-3H-[1,2,3]triazolo[4,5-b]pyridin-6-yl)propanoic acid] stands “A (5<NQO1 activity ratio)”; under `CC[C@@H]1CN(Cc2cc([C@@H](CC(=O)O)c3cc(Cl)c4c(nnn4C)c3C)cc3c2CCC3)S(=O)(=O)c2cc(Cl)cnc2O1` [Example 97, (3R)-3-(7-Chloro-1,4-dimethyl-1H-benzotriazol-5-yl)-3-(7-{[(4R)-8-chloro-4-ethyl-1,1-dioxido-3,4-dihydro-2H-pyrido[2,3-b][1,4,5]oxathiazepin-2-yl]methyl}-2,3-dihydro-1H-inden-5-yl)propanoic acid], “A (5<NQO1 activity ratio)”.

Consider `CC[C@@H]1CN(Cc2cc([C@H](CC(=O)O)c3cc(Cl)c4c(nnn4C)c3C)cc3c2CCC3)S(=O)(=O)c2cc(Cl)cnc2O1` [Example 96, (3S)-3-(7-Chloro-1,4-dimethyl-1H-benzotriazol-5-yl)-3-(7-{[(4R)-8-chloro-4-ethyl-1,1-dioxido-3,4-dihydro-2H-pyrido[2,3-b][1,4,5]oxathiazepin-2-yl]methyl}-2,3-dihydro-1H-inden-5-yl)propanoic acid], for which the “activity ratio (NQO1 activity ratio)” value is “A (5<NQO1 activity ratio)”. As to `CC[C@@H]1CN(Cc2cc([C@@H](CC(=O)O)c3ccc4c(nnn4C)c3C)cc3c2CCC3)S(=O)(=O)c2cccc(Cl)c2O1` [Example 48, (3R)-3-(7-{[(4R)-6-Chloro-4-ethyl-1,1-dioxido-3,4-dihydro-2H-5,1,2-benzoxathiazepin-2-yl]methyl}-2,3-dihydro-1H-inden-5-yl)-3-(1,4-dimethyl-1H-benzotriazol-5-yl)propanoic acid], the “activity ratio (NQO1 activity ratio)” value is “A (5<NQO1 activity ratio)”.

The same data set, now with this note: Mus musculus, Hepa-1c1c7, 400 nM of test compound, about 48 hr, ratio from the base without the compound.
Broadly, the fold induction is the signal under treatment as a multiple of the control signal. For `Cc1c(C(CC(=O)O)c2cc3c(c(CN4CC5(CCOCC5)Oc5ncccc5S4(=O)=O)c2)CCC3)ccc2c1nnn2C` (centres unmarked) [Example 33, 3-(1,4-Dimethyl-1H-benzotriazol-5-yl)-3-{7-[(1′,1′-dioxido-2,3,5,6-tetrahydrospiro[pyran-4,4′-pyrido[2,3-b][1,4,5]oxathiazepine]-2′ (3′H)-yl)methyl]-2,3-dihydro-1H-inden-5-yl}propanoic acid], the fold induction at 0.4 µM is greater than 5.

`Cc1c(C(CC(=O)O)c2cc3c(c(CN4CC5(COC5)Oc5ncccc5S4(=O)=O)c2)CCC3)ccc2c1nnn2C` (centres unmarked) [Example 36, 3-(1,4-Dimethyl-1H-benzotriazol-5-yl)-3-{7-[(1′,1′-dioxido-spiro[oxetane-3,4′-pyrido[2,3-b][1,4,5]oxathiazepine]-2′ (3′H)-yl)methyl]-2,3-dihydro-1H-inden-5-yl}propanoic acid]: the fold induction at 0.4 µM was greater than 5. Same read-out and setting: under `CC[C@@H]1CN(Cc2cc(C(CC(=O)O)c3ccc4c(nnn4C)c3C)cc3c2CCC3)S(=O)(=O)c2ccc(Cl)cc2O1` (stereo partly drawn) [Example 15, 3-(7-{[(4R)-7-Chloro-4-ethyl-1,1-dioxido-3,4-dihydro-2H-5,1,2-benzoxathiazepin-2-yl]methyl}-2,3-dihydro-1H-inden-5-yl)-3-(1,4-dimethyl-1H-benzotriazol-5-yl)propanoic acid] stands greater than 5; under `Cc1c(C(CC(=O)O)c2cc3c(c(CN4CC5(CCC5)Oc5ncccc5S4(=O)=O)c2)CCC3)ccc2c1nnn2C` (centres unmarked) [Example 35, 3-(1,4-Dimethyl-1H-benzotriazol-5-yl)-3-{7-[(1′,1′-dioxido-spiro[cyclobutane-1,4′-pyrido[2,3-b][1,4,5]oxathiazepine]-2′(3′H)-yl)methyl]-2,3-dihydro-1H-inden-5-yl}propanoic acid], greater than 5.

System in another data set: not listed separately
Briefly: Measurement test of plasma drug concentration after oral administration in rats. It is filed as in vivo, rat. The note with it: 10 mg/2 mL/kg oral, suspended in 0.5% methylcellulose, male SD rats. As for the experimental part: 10 mg/2 mL/kg of the test compound suspended in 0.5% methylcellulose solution were force-fed to Male SD rats (7 weeks old, Japan SLC). Blood was collected from the jugular vein using a syringe with heparin at 0.5, 1, 2, 4, 6, and 24 hr after administration. After blood collection, to 20 μL of centrifuged plasma was added an equal volume of acetonitrile followed by 200 μL of internal standard (IS) solution. After agitation, all the supernatant after centrifugation was filtered, and the collected filtrate was used as the assay sample. Equal volumes of the test compound solution prepared in acetonitrile were added to blank plasma, and the samples processed in the same manner as above were used as samples for the calibration curve. The prepared samples were measured using LC/MS/MS, and the area under the blood concentration-time curve (AUC) was calculated from the compound concentration in plasma.
The compound `CC[C@@H]1CN(Cc2cc([C@@H](CC(=O)O)c3ccc4c(nnn4C)c3C)cc3c2CCC3)S(=O)(=O)c2cc(Cl)cnc2O1` [Example 5, (3R)-3-(7-{[(4R)-8-Chloro-4-ethyl-1,1-dioxido-3,4-dihydro-2H-pyrido[2,3-b][1,4,5]oxathiazepin-2-yl]methyl}-2,3-dihydro-1H-inden-5-yl)-3-(1,4-dimethyl-1H-benzotriazol-5-yl)propanoic acid] gave a maximam plasma concentration of 0.006 µM. The same measure, in the same setting: under `CC[C@@H]1CN(Cc2cc([C@H](CC(=O)O)c3ccc4c(nnn4C)c3C)cc3c2CCC3)S(=O)(=O)c2cc(Cl)cnc2O1` [Example 4, (3S)-3-(7-{[(4R)-8-Chloro-4-ethyl-1,1-dioxido-3,4-dihydro-2H-pyrido[2,3-b][1,4,5]oxathiazepin-2-yl]methyl}-2,3-dihydro-1H-inden-5-yl)-3-(1,4-dimethyl-1H-benzotriazol-5-yl)propanoic acid] stands 0.029 µM.

With `CC[C@@H]1CN(Cc2cc([C@H](CC(=O)O)c3ccc4c(nnn4C)c3C)cc3ccsc23)S(=O)(=O)c2cc(Cl)cnc2O1` [Example 7, (3S)-3-(7-{[(4R)-8-Chloro-4-ethyl-1,1-dioxido-3,4-dihydro-2H-pyrido[2,3-b][1,4,5]oxathiazepin-2-yl]methyl}-1-benzothiophen-5-yl)-3-(1,4-dimethyl-1H-benzotriazol-5-yl)propanoic acid], the maximam plasma concentration turned out to be 0.009 µM. The same measure, in the same setting: under `CC[C@@H]1CN(Cc2cc([C@@H](CC(=O)O)c3ccc4c(nnn4C)c3C)cc3ccsc23)S(=O)(=O)c2cc(Cl)cnc2O1` [Example 8, (3R)-3-(7-{[(4R)-8-Chloro-4-ethyl-1,1-dioxido-3,4-dihydro-2H-pyrido[2,3-b][1,4,5]oxathiazepin-2-yl]methyl}-1-benzothiophen-5-yl)-3-(1,4-dimethyl-1H-benzotriazol-5-yl)propanoic acid] stands 0.005 µM.
